From patent US20220372014A1, “NEUROPROTECTIVE COMPOUNDS AND METHODS OF USE THEREOF” (The Johns Hopkins University, priority 2019, published 2022)

Columns and labels:
[1] = system: HeLa cells or neuronal cells; assay: Cell death assay of Example 3 (MNNG, alamarBlue; protection against parthanatos, Table 4); assay type: cell-based; settings: 1 μM test compound, MNNG-induced cell death, alamarBlue
Outline: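 HeLa or neuronal cells (1×10^4/well) were pretreated 1 h at 37° C with 1 μM compound, exposed to MNNG for 15 min, washed, then re-incubated 18 h with 1 μM compound. Viability was read by alamarBlue fluorescence (ex 560/em 590 nm). Cell death was expressed relative to control wells.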

MIF = molecular target: T1, MIF (Homo sapiens, UniProt P14174); assay: Nuclease assay of Example 3 (MIF inhibitory activity, Table 4); assay type: biochemical; set-up: (%) inhibition of MIF nuclease activity: concentration or dose not given beside the values; settings: nuclease assay of Example 3
T1 sequence (P14174 1-115): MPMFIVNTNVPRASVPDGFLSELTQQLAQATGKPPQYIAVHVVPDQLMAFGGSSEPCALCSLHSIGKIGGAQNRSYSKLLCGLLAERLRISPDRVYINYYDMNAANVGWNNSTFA
Outline: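 Human genomic DNA (200 ng), pcDNA (200 ng) or PS^30-type substrates (1 μM) were incubated with MIF (0.25-8 μM final) in 10 mM Tris-HCl pH 7.0, 10 mM MgCl2, 1 mM DTT at 37 °C for 1 h (pcDNA, small substrates) or 4 h (genomic DNA). Cleavage was assessed by agarose or PAGE electrophoresis with EtBr staining and chemiluminescent detection of biotin-labelled DNA.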

SMILES | (%) inhibition of cell death [1] [%] | (%) inhibition of MIF nuclease activity (MIF) [%] | (%) inhibition of cell death ([1]; 1 µM) [%]
COc1ccc(CC[C@H]2OC(=O)[C@@H]3CCCCN3C(=O)C(=O)C(C)(C)COC(=O)C=CCCN(C)C(=O)[C@@H]3CCCN3C(=O)[C@H](COC(C)(C)C)N(C)C(=O)C(c3ccccc3)NC(=O)[C@H](C)N(C)C(=O)COc3ccc(F)c2c3)cc1OC (stereo partly shown) [compound 112] | 48.3 | 19.2 | –
COc1ccc(CC[C@H]2OC(=O)[C@@H]3CCCCN3C(=O)C(=O)C(C)(C)COC(=O)C=CCCN(C)C(=O)[C@@H](Cc3ccccc3)NC(=O)[C@H](Cc3ccccc3)N(C)C(=O)[C@@H](C)NC(=O)CN(C)C(=O)COc3cccc2c3)cc1OC [compound 69] | 55.7 | 20.7 | –
COc1ccc(CC[C@H]2OC(=O)[C@@H]3CCCCN3C(=O)C(=O)C(C)(C)COC(=O)C=CCCN(C)C(=O)[C@H](CC3CCCCC3)NC(=O)[C@H](COC(C)(C)C)N(C)C(=O)[C@@H](CC(C)C)NC(=O)CN(C)C(=O)COc3cccc2c3)cc1OC [compound 12] | 52.0 | 28.9 | –
COc1ccc(CC[C@H]2OC(=O)[C@@H]3CCCCN3C(=O)C(=O)C(C)(C)COC(=O)C=CCCN(C)C(=O)[C@@H](CC(C)C)NC(=O)[C@H](COC(C)(C)C)N(C)C(=O)C(c3ccccc3)NC(=O)CN(C)C(=O)COc3cccc2c3)cc1OC (stereo partly shown) [compound 37] | 59.6 | 18.0 | –
COc1ccc(CC[C@H]2OC(=O)[C@@H]3CCCCN3C(=O)C(=O)C(C)(C)COC(=O)C=CCCN(C)C(=O)[C@@H]3CCCN3C(=O)[C@H](COC(C)(C)C)N(C)C(=O)C(c3ccccc3)NC(=O)[C@H](C)N(C)C(=O)COc3cccc2c3)c(O)c1OC (stereo partly shown) [compound 119] | 60.7 | 19.7 | –
COc1ccc(CC[C@H]2OC(=O)[C@@H]3CCCCN3C(=O)C(=O)C(C)(C)COC(=O)C=CCCN(C)C(=O)[C@@H]3CCCN3C(=O)[C@H](COC(C)(C)C)N(C)C(=O)C(c3ccccc3)NC(=O)[C@H](C)N(C)C(=O)COc3cccc2c3)cc1OC (stereo partly shown) [compound 102] | – | 59.5 | 77.7
COc1ccc(CC[C@H]2OC(=O)[C@@H]3CCCCN3C(=O)C(=O)C(C)(C)COC(=O)C=CCCN(C)C(=O)[C@H](C)NC(=O)[C@H](COC(C)(C)C)N(C)C(=O)[C@@H](CC(C)C)NC(=O)CN(C)C(=O)COc3cccc2c3)cc1OC [compound 2] | 41.1 | 15.3 | –
COc1ccc(CC[C@H]2OC(=O)[C@@H]3CCCCN3C(=O)C(=O)C(C)(C)COC(=O)C=CCCN(C)C(=O)[C@@H](Cc3ccccc3)NC(=O)[C@H](COC(C)(C)C)N(C)C(=O)C(c3ccccc3)NC(=O)CN(C)C(=O)COc3cccc2c3)cc1OC (stereo partly shown) [compound 39] | 57.5 | 31.1 | –
COc1ccc(CC[C@H]2OC(=O)[C@@H]3CCCCN3C(=O)C(=O)C(C)(C)COC(=O)C=CCCN(C)C(=O)[C@H](Cc3ccc(F)cc3)NC(=O)[C@H](COC(C)(C)C)N(C)C(=O)[C@H](Cc3ccc4ccccc4c3)NC(=O)[C@H](C)N(C)C(=O)COc3cccc2c3)cc1OC [compound 25] | 59.1 | 25.8 | –
COc1ccc(CC[C@H]2OC(=O)[C@@H]3CCCCN3C(=O)C(=O)C(C)(C)COC(=O)C=CCCN(C)C(=O)[C@H](Cc3ccc(F)cc3)NC(=O)[C@H](Cc3ccccc3)N(C)C(=O)[C@@H](C)NC(=O)CN(C)C(=O)COc3cccc2c3)cc1OC [compound 70] | 53.8 | 25.2 | –
COc1ccc(CC[C@H]2OC(=O)[C@@H]3CCCCN3C(=O)C(=O)C(C)(C)COC(=O)C=CCCN(C)C(=O)[C@H](c3ccccc3)NC(=O)[C@H](Cc3ccccc3)N(C)C(=O)[C@@H](C)NC(=O)CN(C)C(=O)COc3cccc2c3)cc1OC [compound 75] | 52.8 | 34.9 | –
COc1cc(F)c(CC[C@H]2OC(=O)[C@@H]3CCCCN3C(=O)C(=O)C(C)(C)COC(=O)C=CCCN(C)C(=O)[C@@H]3CCCN3C(=O)[C@H](COC(C)(C)C)N(C)C(=O)C(c3ccccc3)NC(=O)[C@H](C)N(C)C(=O)COc3cccc2c3)cc1OC (stereo partly shown) [compound 109] | 52.9 | 9.3 | –
COc1ccc(CC[C@H]2OC(=O)[C@@H]3CCCCN3C(=O)C(=O)C(C)(C)COC(=O)C=CCCN(C)C(=O)[C@H](Cc3ccccc3)NC(=O)[C@H](C(C)C)N(C)C(=O)[C@@H](Cc3ccccc3)NC(=O)[C@H](CC(C)C)N(C)C(=O)CCC(=O)Nc3cccc2c3)cc1OC [compound 83] | 49.8 | 12.0 | –
COc1ccc(CC[C@H]2OC(=O)[C@@H]3CCCCN3C(=O)C(=O)C(C)(C)COC(=O)C=CCCN(C)C(=O)[C@@H]3CCCN3C(=O)[C@H](C(C)C)N(C)C(=O)[C@@H](Cc3ccccc3)NC(=O)[C@H](CC(C)C)N(C)C(=O)CCC(=O)Nc3cccc2c3)cc1OC [compound 86] | 53.0 | 22.7 | –
CCC[C@@H]1NC(=O)[C@H](C(C)C)N(C)C(=O)[C@@H](Cc2ccccc2)NC(=O)[C@H](CC(C)C)N(C)C(=O)CCC(=O)Nc2cccc(c2)[C@@H](CCc2ccc(OC)c(OC)c2)OC(=O)[C@@H]2CCCCN2C(=O)C(=O)C(C)(C)COC(=O)C=CCCN(C)C1=O [compound 79] | 43.4 | 6.7 | –
COc1ccc(CC[C@H]2OC(=O)[C@@H]3CCCCN3C(=O)C(=O)C(C)(C)COC(=O)C=CCCN(C)C(=O)[C@@H]3CCCN3C(=O)[C@H](COC(C)(C)C)N(C)C(=O)C(c3ccccc3)NC(=O)[C@@H](C)N(C)C(=O)COc3cccc2c3)cc1OC (stereo partly shown) [compound 106] | 13.1 | 11.9 | –
COc1ccc(CC[C@H]2OC(=O)[C@@H]3CCCCN3C(=O)C(=O)C(C)(C)COC(=O)C=CCCN(C)C(=O)[C@@H]3CCCN3C(=O)[C@H](COC(C)(C)C)N(C)C(=O)C(c3ccccc3)NC(=O)[C@H](C)N(C)C(=O)COc3cccc2c3)c(F)c1OC (stereo partly shown) [compound 117] | 51.8 | −5.1 | –
COc1cc(CC[C@H]2OC(=O)[C@@H]3CCCCN3C(=O)C(=O)C(C)(C)COC(=O)C=CCCN(C)C(=O)[C@@H]3CCCN3C(=O)[C@H](COC(C)(C)C)N(C)C(=O)C(c3ccccc3)NC(=O)[C@H](C)N(C)C(=O)COc3cccc2c3)cc(O)c1OC (stereo partly shown) [compound 120] | 45.8 | 7.1 | –
COc1cc(F)c(CCC2OC(=O)[C@@H]3CCCCN3C(=O)C(=O)C(C)(C)COC(=O)C=CCCN(C)C(=O)[C@@H]3CCCN3C(=O)[C@H](COC(C)(C)C)N(C)C(=O)C(c3ccccc3)NC(=O)[C@H](C)N(C)C(=O)COc3cccc2c3)cc1OC (stereo partly shown) [compound 110] | 59.3 | 20.9 | –
COc1ccc(CC[C@H]2OC(=O)[C@@H]3CCCCN3C(=O)C(=O)C(C)(C)COC(=O)C=CCCN(C)C(=O)[C@H](C)NC(=O)[C@H](COC(C)(C)C)N(C)C(=O)C(c3ccccc3)NC(=O)CN(C)C(=O)COc3cccc2c3)cc1OC (stereo partly shown) [compound 32] | 54.3 | 11.2 | –
